Source: patent US20140336218A1, “ARFORMOTEROL AND TIOTROPIUM COMPOSITIONS AND METHODS FOR USE” (priority 2008, published 2014)

Experiments:
COPD patients [1] = assay: Spirometry (FEV1, FVC) in 2-week randomized, double dummy, parallel group clinical trial; assay type: in vivo, human
Description: (§1) This was a 2-week, prospective, multi-center (34 sites), randomized, modified blind, double dummy, parallel group study designed to evaluate the efficacy and safety of the combination of arformoterol 15 μg BID and tiotropium 18 μg QD (dosed sequentially) versus the individual mono-therapies in the treatment of COPD patients. The study was conducted according to the principles established by the Declaration of Helsinki (see, e.g., World Medical Association Declaration of Helsinki. Recommendations guiding physicians in biomedical research involving human subjects. JAMA 1997; 277:925-926.). Appropriate Institutional Review boards approved the protocol and written informed consent was obtained from the patients.
All patients had non-asthmatic COPD (including emphysema and/or chronic bronchitis). […] They also were required to have a pre-bronchodilator baseline pulmonary function of FEV1>0.7 L, FEV1/FVC ratio of ≦70%, and FEV1≦65% predicted. Patients were excluded if they had life-threatening or unstable respiratory status within 30 days of the screening visit. Patients who changed their prescribed dose or type of COPD medication within 14 days prior to screening or who had ever used tiotropium bromide inhalation powder were excluded.
(§2) Eligible patients were randomized to receive one of three treatments for 14 days: nebulized arformoterol 15 μg (Brovana®, Sepracor Inc., Marlborough, Mass.) BID and placebo DPI QD, nebulized placebo BID and tiotropium 18 μg (Spriva® HandiHaler® Boehringer Ingelheim, Ridgefield, Conn.) DPI QD, or nebulized arformoterol 15 μg BID and tiotropium 18 μg DPI QD. The nebulized drug was administered first using the PARI LC Plus® nebulizer driven by the Duraneb 3000® compressor (Pari: Pari Respiratory Equipment Inc., Midlothian, Va.) at a flow rate of 3.3 L/minute followed (within 5 minutes) by the DPI administration (HandiHaler®). The tiotropium and placebo DPI capsules were identical in size and shape but differed in color.
At week 0 and week 2, medical event calendars and blood samples were collected and vital signs and heart measurements analyzed. At week 0, spirometry was performed pre-morning dose, immediately (within 5 minutes) and at 30 minutes, 1, 2, 4, 6, 8, 10, and 12 hours post-first dose. After the 12-hour pulmonary function test patients self-administered the evening dose of study medication. At week 2, serial spirometry was also performed as at week 0, as well as immediately (within 5 minutes) following the evening dose (administered 12 hours after the morning dose) and 12.5, 13, 14, 16, 23, and 24 hours post-morning dose. Inspiratory capacity was evaluated pre-dose and at 2 hours post-morning dose at week 0, and pre-dose and 2, 11, 14, and 24 hours post-morning dose at week 2. All inspiratory capacity measurements were the mean of acceptable inspiratory capacity maneuvers, two of which were reproducible. Prior to an inspiratory capacity maneuver a patient had to have a stable expiratory level for about 10 breaths. Once the stable level was achieved, at the end of exhalation of a normal breath the patient was asked to make a steady and full inhalation at normal inspiratory flow rates until the lungs were completely full, and then to exhale at a normal rate.
All pulmonary function values used were the highest among the three acceptable maneuvers. The Investigator ensured that all spirometry was performed in accordance with the American Thoracic Society/European Respiratory Society Standardisation of Spirometry guidelines (see, e.g., Miller M R, Hankinson J, Brusasco V, Burgos F, Casaburi R, Coates A, et al. Standardisation of spirometry. Eur Respir J 2005; 26:319-338; herein incorporated in its entirety by reference). Centralized over-reading of spirometry and inspiratory capacity pulmonary function measures were used for quality control.

COPD patients [2] = assay: Transition Dyspnea Index (TDI) in 2-week clinical trial; assay type: in vivo, human; settings: for Difference between combined therapy and mono-therapies in TDI, LS mean: combined versus the mono-therapy
Description: as §1, §2
At screening, the Baseline Dyspnea Index (BDI) (see, e.g., Mahler D A, Weinberg D H, Wells C K, Feinstein A R. The measurement of dyspnea. Contents, interobserver agreement, and physiologic correlates of two new clinical indexes. Chest 1984; 85:751-758; herein incorporated in its entirety by reference) was assessed prior to the first clinic dose, and at week 2 the Transition Dyspnea Index (see id.) was evaluated before first morning dose. The baseline focal score (range 0 to 12) and the transition focal score (range −9 to 9) were the sums of the functional impairment, magnitude of task, and magnitude of effort scores (see id.). Higher scores indicate less dyspnea at baseline (BDI) or greater improvement in dyspnea from baseline (TDI).
The study was designed to detect a mean treatment difference of time normalized FEV1AUC over 24 hours (FEV1AUC0-24) (the primary endpoint) of 0.075 L with a standard deviation of 0.016 L when comparing combined therapy with mono-therapy, using a two-sided 5% significance level, following 2-weeks of dosing for the primary comparison with 80% power. All efficacy analyses were performed on the ITT population. All statistical testing was 2-tailed and conducted at the 5% significance level, unless otherwise indicated. […] To control for multiple comparisons, statistical tests of mean treatment group differences were considered significant if the overall treatment effect in the model was statistically significant at the 5% level. Pulmonary function severity subgroup analysis was performed post hoc by stratifying patients according to the GOLD COPD guidelines (see, e.g., Pauwels R A, Buist A S, Calverley P M, Jenkins C R, Hurd S S. Global strategy for the diagnosis, management, and prevention of chronic obstructive pulmonary disease. NHLBI/WHO Global Initiative for Chronic Obstructive Lung Disease (GOLD) Workshop summary. Am J Respir Crit Care Med 2001; 163:1256-1276;; herein incorporated in its entirety by reference) (<30%, ≧30% to <50%, and ≧50%, respectively). Pairwise comparisons between treatment groups were performed using least square means (LS means) from the linear model with the study baseline (or predose where applicable) as a covariate and the treatment group as a fixed effect.

[3] = ITT, change from baseline at week 2
[4] = ITT, week 2, combined therapy versus the mono-therapy
[5] = baseline percent predicted FEV1 <50%, week 2, combined versus the mono-therapy
[6] = baseline percent predicted FEV1 <50%, week 2 from study baseline
[7] = baseline percent predicted FEV1 ≧50%, week 2, combined versus the mono-therapy
[8] = baseline percent predicted FEV1 ≧50%, week 2 from study baseline
[9] = baseline percent predicted FEV1 <50%, week 2
[10] = baseline percent predicted FEV1 ≧50%, week 2

## COc1ccc(C[C@@H](C)NC[C@H](O)c2ccc(O)c(NC=O)c2)cc1 [Arformoterol]
COPD patients [1]; 2 hours after evening dose
  mean FEV1 improvement 2-hours after the evening dose: ~182 mL
COPD patients [1]; 2 hours after morning dose
  mean FEV1 improvement 2-hours after the morning dose: approximately 213 mL
COPD patients [1]; [3]
  Peak Change in FEV1 over 12 hours, mean (SD): 0.27 (0.21) L
  Peak change in FVC over 12 hours, mean (SD): 0.48 (0.37) L
COPD patients [1]; ITT, change from baseline at week 2, time normalized
  Change in FEV1AUC0-24, mean (SD): 0.10 (0.21) L
COPD patients [1]; [4]
  Difference between combined therapy and mono-therapies in change in FEV1AUC0-24, LS mean: 0.12 L
  Difference between combined therapy and mono-therapies in change in trough FEV1, LS mean: 0.07 L
  Difference between combined therapy and mono-therapies in peak change in FEV1 over 12 hours, LS mean: 0.11 L
  Difference between combined therapy and mono-therapies in peak change in FVC over 12 hours, LS mean: 0.12 L
COPD patients [1]; ITT, week 2, trough = 24 hour time point after morning dose
  Change in trough FEV1, mean (SD): 0.09 (0.23) L
COPD patients [1]; [5]
  Difference between combined therapy and mono-therapies in change in FEV1AUC0-24, LS mean: 0.11 L
  Difference between combined therapy and mono-therapies in peak change in FEV1 over 12 hours, LS mean: 0.11 L
  Difference between combined therapy and mono-therapies in peak change in FVC over 12 hours, LS mean: 0.15 L
  Difference between combined therapy and mono-therapies in trough FEV1, LS mean: 0.08 L
COPD patients [1]; [6]
  Peak Change in FEV1 over 12 hours, mean (SD): 0.31 (0.23) L
  Peak change in FVC over 12 hours, mean (SD): 0.56 (0.41) L
  Trough FEV1 (change in FEV1 at 24 hours post-dose), mean (SD): 0.13 (0.23) L
COPD patients [1]; baseline percent predicted FEV1 <50%, week 2 from study baseline (pre-dose week 0)
  Change in FEV1AUC0-24, mean (SD): 0.15 (0.22) L
COPD patients [1]; [7]
  Difference between combined therapy and mono-therapies in change in FEV1AUC0-24, LS mean: 0.14 L
  Difference between combined therapy and mono-therapies in peak change in FEV1 over 12 hours, LS mean: 0.10 L
  Difference between combined therapy and mono-therapies in peak change in FVC over 12 hours, LS mean: 0.08 L
  Difference between combined therapy and mono-therapies in trough FEV1, LS mean: 0.05 L
COPD patients [1]; [8]
  Peak Change in FEV1 over 12 hours, mean (SD): 0.22 (0.17) L
  Peak change in FVC over 12 hours, mean (SD): 0.34 (0.25) L
  Trough FEV1 (change in FEV1 at 24 hours post-dose), mean (SD): 0.02 (0.21) L
COPD patients [1]; baseline percent predicted FEV1 ≧50%, week 2 from study baseline (pre-dose week 0)
  Change in FEV1AUC0-24, mean (SD): 0.03 (0.19) L
COPD patients [1]; from baseline after 2 weeks of treatment
  mean improvement in peak FVC: 48 mL
COPD patients [1]; from visit pre-dose
  LS mean (±SE) peak improvement in FEV1 from visit pre-dose: 0.19 L
COPD patients [2]; ITT, week 2
  Patients with change ≧1 unit (TDI), n (%): 50 (66.7) n (%)
COPD patients [2]; ITT, week 2, transition focal score range −9 to 9
  TDI, mean (SD): 2.3 (2.4)
COPD patients [2]; [9]
  Patients with change of ≧1 unit (TDI), n (%): 34 (72.3) n (%)
  TDI, mean (SD): 2.3 (2.3)
  Difference between combined therapy and mono-therapies in TDI, LS mean: 1.3
COPD patients [2]; [10]
  TDI, mean (SD): 2.3 (2.6)
  Difference between combined therapy and mono-therapies in TDI, LS mean: 0.2
COPD patients [2]; baseline percent predicted FEV1 ≧50%, week 2, cells print n (%)
  Patients with change of ≧1 unit (TDI), %: 17 (57.1) %
COPD patients [2]; patients with <50% predicted FEV1 at baseline
  improvement in TDI: 2.3 units
